target: HSP90 (Homo sapiens, UniProt P07900); assay: HSP90 inhibition (HSP90 IC50); type: biochemical

| Compound | IC50 |
| --- | --- |
| COc1cccc(C(=O)N[C@H]2C[C@H]3CC[C@@H](C2)N3c2ccc(C(=O)NCCCN3CCOCC3)cn2)c1C [6-[3-endo-({[2-methyl-3-(methyloxy)phenyl]carbonyl}amino)-8-azabicyclo[3.2.1]oct-8-yl]-N-(3-morpholin-4-ylpropyl)pyridine-3-carboxamide] | 0.5 to 0.999 µM |
| COc1cccc(C(=O)N[C@H]2C[C@H]3CC[C@@H](C2)N3c2ccc(C(=O)Nc3ccc(C)cc3)cn2)c1C [6-[3-endo-({[2-methyl-3-(methyloxy)phenyl]carbonyl}amino)-8-azabicyclo[3.2.1]oct-8-yl]-N-(4-methylphenyl)pyridine-3-carboxamide] | 1 to 2 µM |
| COc1cccc(C(=O)N[C@H]2C[C@H]3CC[C@@H](C2)N3c2ccc(C(=O)NCc3cccnc3)cn2)c1C [6-[3-endo-({[2-methyl-3-(methyloxy)phenyl]carbonyl}amino)-8-azabicyclo[3.2.1]oct-8-yl]-N-(pyridin-3-ylmethyl)pyridine-3-carboxamide] | < 0.5 µM |
| COc1cccc(C(=O)NC2CC3CCC(C2)N3c2ccc(C(=O)NCC3CCCO3)cn2)c1C (stereo not drawn) [6-[3-endo-({[2-methyl-3-(methyloxy)phenyl]carbonyl}amino)-8-azabicyclo[3.2.1]oct-8-yl]-N-(tetrahydrofuran-2-ylmethyl)pyridine-3-carboxamide] | 2 to 10 µM |
| COc1cccc(C(=O)N[C@H]2C[C@H]3CC[C@@H](C2)N3c2ccc(C(=O)NCc3ccc(N4CCN(CC(C)C)CC4)cc3)cn2)c1C [6-[3-endo-({[2-methyl-3-(methyloxy)phenyl]carbonyl}amino)-8-azabicyclo[3.2.1]oct-8-yl]-N-({4-[4-(2-methylpropyl)piperazin-1-yl]phenyl}methyl)pyridine-3-carboxamide] | < 0.5 µM |
| COc1cccc(C(=O)N[C@H]2C[C@H]3CC[C@@H](C2)N3c2ccc(C(=O)NCc3ccc(OC(F)(F)F)cc3)cn2)c1C [6-[3-endo-({[2-methyl-3-(methyloxy)phenyl]carbonyl}amino)-8-azabicyclo[3.2.1]oct-8-yl]-N-({4-[(trifluoromethyl)oxy]phenyl}methyl) pyridine-3-carboxamide] | 2 to 10 µM |
| COc1cccc(C(=O)NC2CC3CCC(C2)N3c2ccc(C(=O)NC(C)c3ccc(N4CCNCC4)nc3)cn2)c1C (stereo not drawn) [6-[3-endo-({[2-methyl-3-(methyloxy)phenyl]carbonyl}amino)-8-azabicyclo[3.2.1]oct-8-yl]-N-[1-(6-piperazin-1-ylpyridin-3-yl)ethyl]pyridine-3-carboxamide] | < 0.5 µM |
| COc1cccc(C(=O)N[C@H]2C[C@H]3CC[C@@H](C2)N3c2ccc(C(=O)NC3CCN(Cc4ccccc4)CC3)cn2)c1C [6-[3-endo-({[2-methyl-3-(methyloxy)phenyl]carbonyl}amino)-8-azabicyclo[3.2.1]oct-8-yl]-N-[1-(phenylmethyl)piperidin-4-yl]pyridine-3-carboxamide] | < 0.5 µM |
| COc1cccc(C(=O)NC2CC3CCC(C2)N3c2ccc(C(=O)NCCC3CCCN3C)cn2)c1C (stereo not drawn) [6-[3-endo-({[2-methyl-3-(methyloxy)phenyl]carbonyl}amino)-8-azabicyclo[3.2.1]oct-8-yl]-N-[2-(1-methylpyrrolidin-2-yl)ethyl]pyridine-3-carboxamide] | 0.5 to 0.999 µM |
| COCCNC(=O)c1ccc(N2[C@@H]3CC[C@H]2C[C@@H](NC(=O)c2cccc(OC)c2C)C3)nc1 [6-[3-endo-({[2-methyl-3-(methyloxy)phenyl]carbonyl}amino)-8-azabicyclo[3.2.1]oct-8-yl]-N-[2-(methyloxy)ethyl]pyridine-3-carboxamide] | 2 to 10 µM |
| COc1ccccc1NC(=O)c1ccc(N2[C@@H]3CC[C@H]2C[C@@H](NC(=O)c2cccc(OC)c2C)C3)nc1 [6-[3-endo-({[2-methyl-3-(methyloxy)phenyl]carbonyl}amino)-8-azabicyclo[3.2.1]oct-8-yl]-N-[2-(methyloxy)phenyl]pyridine-3-carboxamide] | 2 to 10 µM |
| COc1cccc(C(=O)N[C@H]2C[C@H]3CC[C@@H](C2)N3c2ccc(C(=O)NCCSC)cn2)c1C [6-[3-endo-({[2-methyl-3-(methyloxy)phenyl]carbonyl}amino)-8-azabicyclo[3.2.1]oct-8-yl]-N-[2-(methylthio)ethyl]pyridine-3-carboxamide] | 1 to 2 µM |
| COc1cccc(C(=O)N[C@H]2C[C@H]3CC[C@@H](C2)N3c2ccc(C(=O)NCCCN3CCCC3=O)cn2)c1C [6-[3-endo-({[2-methyl-3-(methyloxy)phenyl]carbonyl}amino)-8-azabicyclo[3.2.1]oct-8-yl]-N-[3-(2-oxopyrrolidin-1-yl)propyl]pyridine-3-carboxamide] | 0.5 to 0.999 µM |
| COc1cccc(C(=O)N[C@H]2C[C@H]3CC[C@@H](C2)N3c2ccc(C(=O)NCCCN3CCN(C)CC3)cn2)c1C [6-[3-endo-({[2-methyl-3-(methyloxy)phenyl]carbonyl}amino)-8-azabicyclo[3.2.1]oct-8-yl]-N-[3-(4-methylpiperazin-1-yl)propyl]pyridine-3-carboxamide] | 0.5 to 0.999 µM |
| COc1cccc(NC(=O)c2ccc(N3[C@@H]4CC[C@H]3C[C@@H](NC(=O)c3cccc(OC)c3C)C4)nc2)c1 [6-[3-endo-({[2-methyl-3-(methyloxy)phenyl]carbonyl}amino)-8-azabicyclo[3.2.1]oct-8-yl]-N-[3-(methyloxy)phenyl]pyridine-3-carboxamide] | 2 to 10 µM |
| COCCCNC(=O)c1ccc(N2[C@@H]3CC[C@H]2C[C@@H](NC(=O)c2cccc(OC)c2C)C3)nc1 [6-[3-endo-({[2-methyl-3-(methyloxy)phenyl]carbonyl}amino)-8-azabicyclo[3.2.1]oct-8-yl]-N-[3-(methyloxy)propyl]pyridine-3-carboxamide] | 0.5 to 0.999 µM |
| CCCOCCCNC(=O)c1ccc(N2[C@@H]3CC[C@H]2C[C@@H](NC(=O)c2cccc(OC)c2C)C3)nc1 [6-[3-endo-({[2-methyl-3-(methyloxy)phenyl]carbonyl}amino)-8-azabicyclo[3.2.1]oct-8-yl]-N-[3-endo-(propyloxy)propyl]pyridine-3-carboxamide] | 0.5 to 0.999 µM |
| COc1cccc(C(=O)N[C@H]2C[C@H]3CC[C@@H](C2)N3c2ccc(C(=O)Nc3ccc(C4CCN(C)CC4)cc3)cn2)c1C [6-[3-endo-({[2-methyl-3-(methyloxy)phenyl]carbonyl}amino)-8-azabicyclo[3.2.1]oct-8-yl]-N-[4-(1-methylpiperidin-4-yl)phenyl]pyridine-3-carboxamide] | 1 to 2 µM |
| COc1cccc(C(=O)N[C@H]2C[C@H]3CC[C@@H](C2)N3c2ccc(C(=O)Nc3ccc(N4CCN(C)CC4)cc3)cn2)c1C [6-[3-endo-({[2-methyl-3-(methyloxy)phenyl]carbonyl}amino)-8-azabicyclo[3.2.1]oct-8-yl]-N-[4-(4-methylpiperazin-1-yl)phenyl]pyridine-3-carboxamide] | < 0.5 µM |
| COc1ccc(NC(=O)c2ccc(N3[C@@H]4CC[C@H]3C[C@@H](NC(=O)c3cccc(OC)c3C)C4)nc2)cc1 [6-[3-endo-({[2-methyl-3-(methyloxy)phenyl]carbonyl}amino)-8-azabicyclo[3.2.1]oct-8-yl]-N-[4-(methyloxy)phenyl]pyridine-3-carboxamide] | 0.5 to 0.999 µM |
| COc1cccc(C(=O)NC2CC3CCC(C2)N3c2ccc(C(=O)N[C@H](C)c3ccccc3)cn2)c1C (stereo partly drawn) [6-[3-endo-({[2-methyl-3-(methyloxy)phenyl]carbonyl}amino)-8-azabicyclo[3.2.1]oct-8-yl]-N-[(1R)-1-phenylethyl]pyridine-3-carboxamide] | 2 to 10 µM |

Reference: US8012956B2, “Tropane compounds” (Exelixis, Inc., priority 2007, dated 2011)
